Experimental data from patent US8299048B2, “Hexahydrocyclopentyl[f]indazole sulfonamides and derivatives thereof as selective glucocorticoid receptor modulators” (Merck Sharp & Dohme Corp., priority 2008, dated 2012).

Biological target: T1, glucocorticoid receptor (Homo sapiens, UniProt P04150)
T1 construct: endogenous in cells
T1 sequence (P04150 1-777): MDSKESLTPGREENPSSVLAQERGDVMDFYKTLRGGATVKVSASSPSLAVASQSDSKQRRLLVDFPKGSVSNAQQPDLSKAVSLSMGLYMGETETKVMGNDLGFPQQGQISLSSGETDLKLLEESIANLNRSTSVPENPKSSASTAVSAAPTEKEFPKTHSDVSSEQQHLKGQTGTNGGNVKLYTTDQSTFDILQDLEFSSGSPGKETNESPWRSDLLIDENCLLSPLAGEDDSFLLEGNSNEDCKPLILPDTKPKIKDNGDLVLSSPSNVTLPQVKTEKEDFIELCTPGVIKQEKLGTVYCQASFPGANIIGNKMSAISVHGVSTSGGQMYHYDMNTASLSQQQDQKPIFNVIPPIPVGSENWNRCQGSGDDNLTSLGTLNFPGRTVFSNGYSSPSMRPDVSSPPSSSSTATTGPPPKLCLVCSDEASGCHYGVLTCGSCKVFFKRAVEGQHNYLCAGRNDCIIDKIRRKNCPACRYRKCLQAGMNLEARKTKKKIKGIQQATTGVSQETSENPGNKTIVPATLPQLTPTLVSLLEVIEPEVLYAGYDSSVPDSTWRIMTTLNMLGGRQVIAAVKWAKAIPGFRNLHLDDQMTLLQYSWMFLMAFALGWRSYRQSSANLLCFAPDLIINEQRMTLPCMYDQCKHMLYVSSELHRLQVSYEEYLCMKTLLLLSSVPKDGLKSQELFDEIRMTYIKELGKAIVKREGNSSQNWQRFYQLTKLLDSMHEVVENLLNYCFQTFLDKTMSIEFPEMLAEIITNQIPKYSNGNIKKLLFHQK
Assay: Ligand binding assay (GR BIND)
Protocol: • Materials: • Binding Buffer: TEGM (10 mM Tris-HCl, 1 mM EDTA, 10% glycerol, 1 mM beta-mecaptoethanol, 10 mM Sodium Molybdate, pH 7.2) • 50% HAP Slurry: Calbiochem Hydroxylapatite, Fast Flow, in 10 mM Tris, pH 8.0 and 1 mM EDTA. • Wash Buffer: 40 mM Tris, pH7.5, 100 mM KCl, 1 mM EDTA and 1 mM EGTA.
Phenol red-free Trypsin-EDTA is diluted in the same PBS1:10. The cell layers are rinsed with 1× Trypsin, extra Trypsin is poured out, and the cell layers are incubated at 37° C. for ˜2 min. The flask is tapped and checked for signs of cell detachment. Once the cells begin to slide off the flask, the complete media is added. The cells are counted at this point, then diluted to the appropriate concentration and split into flasks or dishes for further culturing (Usually 1:3 to 1:6 dilution).
When the cells are 70 to 85% confluent, they are detached as described above, and collected by centrifuging at 1000 g for 10 minutes at 4° C. The cell pellet is washed twice with TEGM (10 mM Tris-HCl, 1 mM EDTA, 10% glycerol, 1 mM beta-mercaptoethanol, 10 mM Sodium Molybdate, pH 7.2). After the final wash, the cells are resuspended in TEGM at a concentration of 10^7 cells/mL. The cell suspension is snap frozen in liquid nitrogen or ethanol/dry ice bath and transferred to −80° C. freezer on dry ice. Before setting up the binding assay, the frozen samples are left on ice-water to just thaw (˜1 hr). Then the samples are centrifuged at 12,500 g to 20,000 g for 30 min at 4° C. The supernatant is used to set-up assay right away. If using 50 μL of supernatant, the test compound can be prepared in 50 μL of the TEGM buffer.
1×TEGM buffer is prepared, and the isotope-containing assay mixture is prepared in the following order: EtOH (2% final concentration in reaction), 3H-DEX (Amersham Biosciences) and 1×TEGM. [e.g. For 100 samples, 200 μL (100×2) of EtOH+4.25 μL of 1:10 ^3H—Dex stock+2300 μL (100×23) 1×TEGM]. The compound is serially diluted, e.g., if starting final conc. is 1 μM, and the compound is in 25 μL of solution, for duplicate samples, 75 μL of 4×1 μM solution is made and 3 μL of 100 μM is added to 72 μL of buffer, and 1:5 serial dilution.
25 μL of ^3H-DEX (6 nM) trace and 25 μL compound solution are first mixed together, followed by addition of 50 μL receptor solution. The reaction is gently mixed, spun briefly at about 200 rpm and incubated at 4° C. overnight. 100 μL of 50% HAP slurry is prepared and added to the incubated reaction which is then vortexed and incubated on ice for 5 to 10 minutes. The reaction mixture is vortexed twice more to resuspend HAP while incubating reaction. The samples in 96-well format are then washed in wash buffer using The FilterMate™ Universal Harvester plate washer (Packard). The washing process transfers HAP pellet containing ligand-bound expressed receptor to Unifilter-96 GF/B filter plate (Packard). The HAP pellet on the filter plate is incubated with 50 μL of MICROSCINT (Packard) scintillint for 30 minutes before being counted on the TopCount microscintillation counter (Packard). […] are calculated using DEX as a reference.

SMILES	Ki
C[C@@H](O)CN(C[C@H]1CCC2=Cc3c(cnn3-c3ccc(F)cc3)C[C@@]21C)S(=O)(=O)c1ccc(F)c(Cl)c1 [Example 115, 3-chloro-4-fluoro-N-{[(4αR,5S)-1-(4-fluorophenyl)-4α-methyl-1,4,4α,5,6,7-hexahydrocyclopenta[f]indazol-5-yl]methyl}-N-[(2R)-2-hydroxypropyl]benzenesulfonamide]	2.9 nM
CCCS(=O)(=O)N(CCc1ccccn1)C[C@H]1CCC2=Cc3c(cnn3-c3ccc(F)cc3)C[C@@]21C [Example 151, N-{[(4αR,5S)-1-(4-fluorophenyl)-4α-methyl-1,4,4α,5,6,7-hexahydrocyclopenta[f]indazol-5-yl]methyl}-N-(2-pyridin-2-ylethyl)propane-1-sulfonamide]	1.3 nM
CC(C1CCC2=Cc3c(cnn3-c3ccc(F)cc3)C[C@@]21C)N(CC1CC1)S(=O)(=O)CC(F)(F)F (stereo partly drawn) [Example 109, N-(cyclopropylmethyl)-2,2,2-trifluoro-N-{1-[(4αR)-1-(4-fluorophenyl)-4α-methyl-1,4,4α,5,6,7-hexahydrocyclopenta[f]indazol-5-yl]ethyl}ethanesulfonamide]	2.1 nM
Cc1nn(C)c(Cl)c1S(=O)(=O)N(CC1CC1)C[C@H]1CCC2=Cc3c(cnn3-c3ccc(F)cc3)C[C@@]21C [Example 7]	0.4 nM
C[C@]12Cc3cnn(-c4ccccc4)c3C=C1CC[C@@H]2CN(CCc1ccccn1)S(=O)(=O)CC(F)(F)F [Example 138, 2,2,2-trifluoro-N-{[(4αR,5S)-4α-methyl-1-phenyl-1,4,4α,5,6,7-hexahydrocyclopenta[f]indazol-5-yl]methyl}-N-(2-pyridin-2-ylethyl)ethanesulfonamide]	1.2 nM
C[C@@H](CN(C[C@H]1CCC2=Cc3c(cnn3-c3ccc(F)cc3)C[C@@]21C)S(=O)(=O)CC(F)(F)F)OS(=O)(=O)CC(F)(F)F [Example 114, (1S)-2-{{[(4αR,5S)-1-(4-fluorophenyl)-4α-methyl-1,4,4α,5,6,7-hexahydrocyclopenta[f]indazol-5-yl]methyl}[(2,2,2-trifluoroethyl)sulfonyl]amino}-1-methylethyl 2,2,2-trifluoroethanesulfonate]	0.8 nM
C[C@H](O)CN(C[C@H]1CCC2=Cc3c(cnn3-c3ccc(F)cc3)C[C@@]21C)S(=O)(=O)c1ccc(F)c(Cl)c1 [Example 112, 3-chloro-4-fluoro-N-{[(4αR,5S)-1-(4-fluorophenyl)-4α-methyl-1,4,4α,5,6,7-hexahydrocyclopenta[f]indazol-5-yl]methyl}-N-[(2S)-2-hydroxypropyl]benzenesulfonamide]	1.7 nM
COc1ccccc1CCN(C[C@H]1CCC2=Cc3c(cnn3-c3ccc(F)cc3)C[C@@]21C)S(=O)(=O)Cc1cccnc1 [Example 125, N-{[(4αR,5S)-1-(4-fluorophenyl)-4α-methyl-1,4,4α,5,6,7-hexahydrocyclopenta[f]indazol-5-yl]methyl}-N-[2-(2-methoxyphenyl)ethyl]-1-pyridin-3-ylmethanesulfonamide]	1 nM
Cc1noc(C)c1S(=O)(=O)NC[C@H]1CCC2=Cc3c(cnn3-c3ccc(F)cc3)C[C@@]21C [Example 161, N-{[(4αR,5S)-1-(4-fluorophenyl)-4α-methyl-1,4,4α,5,6,7-hexahydrocyclopenta[f]indazol-5-yl]methyl}-3,5-dimethylisoxazole-4-sulfonamide]	4.8 nM
Cn1cc(S(=O)(=O)N(CCc2ccccc2F)C[C@H]2CCC3=Cc4c(cnn4-c4ccc(F)cc4)C[C@@]32C)c(C(F)(F)F)n1 [Example 98, N-[2-(2-fluorophenyl)ethyl]-N-{[(4αR,5S)-1-(4-fluorophenyl)-4α-methyl-1,4,4α,5,6,7-hexahydrocyclopenta[f]indazol-5-yl]methyl}-1-methyl-3-(trifluoromethyl)-1H-pyrazole-4-sulfonamide]	1.5 nM
C[C@]12Cc3cnn(-c4ccc(F)cc4)c3C=C1CC[C@@H]2CN(CCc1ccccc1F)S(=O)(=O)Cc1ccccc1C(F)(F)F [Example 108, N-[2-(2-fluorophenyl)ethyl]-N-{[(4αR,5S)-1-(4-fluorophenyl)-4α-methyl-1,4,4α,5,6,7-hexahydrocyclopenta[f]indazol-5-yl]methyl}-1-[2-(trifluoromethyl)phenyl]methanesulfonamide]	2.3 nM

Now from value to compound:

Ki	SMILES
1.1 nM	COc1ccc(CCN(C[C@H]2CCC3=Cc4c(cnn4-c4ccc(F)cc4)C[C@@]32C)S(=O)(=O)CC(F)(F)F)cc1 [Example 127, 2,2,2-trifluoro-N-{[(4αR,5S)-1-(4-fluorophenyl)-4α-methyl-1,4,4α,5,6,7-hexahydrocyclopenta[f]indazol-5-yl]methyl}-N-[2-(4-methoxyphenyl)ethyl]ethanesulfonamide]
0.9 nM	C[C@]12Cc3cnn(-c4ccccc4)c3C=C1CC[C@@H]2CN(CCc1ccccc1F)S(=O)(=O)CC(F)(F)F [Example 137, 2,2,2-trifluoro-N-[2-(2-fluorophenyl)ethyl]-N-{[(4αR,5S)-4α-methyl-1-phenyl-1,4,4α,5,6,7-hexahydrocyclopenta[f]indazol-5-yl]methyl}ethanesulfonamide]
2.9 nM	C[C@]12Cc3cnn(-c4ccc(F)cc4)c3C=C1CC[C@@H]2CN(CCc1ccccc1O)S(=O)(=O)Cc1cccc(C(F)(F)F)c1 [Example 122, N-{[(4αR,5S)-1-(4-fluorophenyl)-4α-methyl-1,4,4α,5,6,7-hexahydrocyclopenta[f]indazol-5-yl]methyl}-N-[2-(2-hydroxyphenyl)ethyl]-1-[3-(trifluoromethyl)phenyl]methanesulfonamide]
1.3 nM	COc1ccccc1CCN(C[C@H]1CCC2=Cc3c(cnn3-c3ccc(F)cc3)C[C@@]21C)S(=O)(=O)CC(F)(F)F [Example 120, 2,2,2-trifluoro-N-{[(4αR,5S)-1-(4-fluorophenyl)-4α-methyl-1,4,4α,5,6,7-hexahydrocyclopenta[f]indazol-5-yl]methyl}-N-[2-(2-methoxyphenyl)ethyl]ethanesulfonamide]
0.3 nM	COCCN(C[C@H]1CCC2=Cc3c(cnn3-c3ccc(F)cc3)C[C@@]21C)S(=O)(=O)CC(F)(F)F [Example 97, 2,2,2-trifluoro-N-{[(4αR,5S)-1-(4-fluorophenyl)-4α-methyl-1,4,4α,5,6,7-hexahydrocyclopenta[f]indazol-5-yl]methyl}-N-(2-methoxyethyl)ethanesulfonamide]
0.9 nM	COc1cccc(CCN(C[C@H]2CCC3=Cc4c(cnn4-c4ccc(F)cc4)C[C@@]32C)S(=O)(=O)CC(F)(F)F)c1 [Example 126, 2,2,2-trifluoro-N-{[(4αR,5S)-1-(4-fluorophenyl)-4α-methyl-1,4,4α,5,6,7-hexahydrocyclopenta[f]indazol-5-yl]methyl}-N-[2-(3-methoxyphenyl)ethyl]ethanesulfonamide]
